Data taken from paper PMC11676734, “Novel Cyclic Peptide–Drug Conjugate P6-SN38 Toward Targeted Treatment of EGFR Overexpressed Non-Small Cell Lung Cancer” (Pharmaceutics, 2024).
Positions of bridges follow the written chain, without caps; N, C: chain ends. Residues, ends and D or L forms follow the SMILES beside them. *: point of attachment. X1 = CCc1c2c(nc3ccc(O)cc13)-c1cc3c(c(=O)n1C2)COC(=O)[C@@]3(CC)OC(=O)CCC(=O)*; GABA = NCCCC(=O)O

Experiments:
K562 (EGFR−) tumor = test: In vivo tumor growth inhibition, K562 (EGFR−) xenograft; design: species or system NOD/SCID (nude) mice; conditions: 10 mg/kg i.v. once a week, 3 times
Method: (§1) Animal protocols were approved by the Institutional Animal Care and Use Committee at Ariel University. NOD/SCID (nude) mice were injected with H1299 in the right flank and K562 cells in the left flank (10^6 cells each), so that each mouse developed dual H1299 and K562 xenografts.
(§2) When tumors reached~50 mm^3, mice were injected via tail vein (i.v.).
(§3) The mice’s weight and tumor volumes were measured every 2 days. The tumor sizes were measured by using the hands-on digital caliper method, and the tumor volumes were calculated according to the Formula (1). Tumor volume (mm^3) = 0.5 × Tumor Length × Tumor Width^2(1)
Figure 6 In vivo effect of P6-SN38 conjugate in NSCLC model (10 mg/kg, once a week). […] The resected tumors are shown in (C). N = 4 in each group. * p < 0.05, ** p < 0.005, *** p < 0.001, **** p < 0.0001.

EGFR+ H1299 cells = test: XTT cell viability / cytotoxicity, H1299 cells; assay type: cell-based; conditions: 6 h pre-incubation, wash
Method: (§4) Cell proliferation in the presence of P6-SN38 was evaluated using a commercial XTT assay kit (Enhanced Cell Counting Kit 8 (WST-8/CCK8); Elabscience, Houston, TX, USA). A total of 10^4 cells per well were seeded in 96-well plates and incubated overnight in complete RPMI growth medium. After washing, the cells were cultured in 100 µL of fresh medium containing varying concentrations of free SN38 or PDC for 3 h and 6 h (pre-incubation). Following this, the cells were washed again and incubated for an additional 24, 48, and 72 h. The XTT reagent was then added to each well, and the plate was incubated for 2 h at 37 °C. For cytotoxicity analysis, absorbance was measured at 450 nm and 630 nm using a TECAN Infinite M200 ELISA reader (Citrine Solutions, Oranit, Israel). All assays were performed in triplicate, and each experiment was repeated three times.
(§5) Figure 2 Cell viability after 6 h of pre-incubation of EGFR+ H1299 (A) and EGFR− HEK293 (B) cell lines with P6-SN38 and SN38. H1299 and HEK293 cells were cultured in a 96-well plate and pre-incubated with six different concentrations (0.5, 2.5, 5, 10, 15, and 25 μM) of P6-SN38 or SN38 for 6 h, washed out, and incubated additionally for 24 h, 48 h, and 72 h. Cell viability was assessed using an XTT assay, with the viability of untreated control cells set at 100%. The viability of treated cells was expressed as a percentage relative to the control. Data are presented as the mean ± standard deviation (SD).

H1299 cells [1] = test: Apoptosis assay, Annexin V-FITC/PI flow cytometry; assay type: cell-based; conditions: 2.5 µM, 6 h pre-treatment, wash, mean ± SD; for apoptotic rate / late-stage apoptosis rate: 24 h; for apoptosis / late apoptosis rate: 48 h
Method: H1299 cells were seeded at the concentration of 5 × 10^4 cells/mL in the RPMI 1640 growth medium and incubated in 6-well plates at 37 °C under 5% CO2. The next day, the medium was removed, and P6-SN38, or free SN38 (2.5 µM), in fresh medium was added and incubated for 6 h. Then, the medium was removed by washing out, fresh medium was added, and the plates were incubated for an additional 24 and 48 h. The cells were collected with 0.25% trypsin/EDTA solution and washed with PBS twice at 1500 rpm for 5 min. After that, Annexin-FITC (5 µM) and propidium Iodide (PI, 5 µM) were added (both from Abcam, Cambridge, UK). The cells were incubated for 15 min in the dark, and the samples (2 × 10^4 cells) were analyzed by flow cytometry.
SN38, a potent topoisomerase I inhibitor, disrupts DNA replication, leading to cell cycle arrest and apoptosis. To evaluate and compare the effects of peptide-bound SN38 (P6-SN38) and free SN38 on DNA damage and cell cycle distribution (Section 3.4), H1299 cells were pre-treated with both compounds at a concentration of 2.5 µM for 6 h, followed by washing and continued incubation for 24 or 48 h (Figure 3).
Figure 3 Apoptosis of H1299 cells estimated through cell survival percentage by binding with annexin V-FITC. H1299 cells were pre-incubated with P6-SN38 and SN38 as described in Section 2.6. Cells were stained with annexin and PI and analyzed by flow cytometry; * p < 0.05, *** p < 0.001, **** p < 0.0005. “ns” means non-significant.

[2] = Mice body weight during efficacy study; assay type: in vivo, NOD/SCID (nude) mice; conditions: i.v. once a week, 3 times; P6-SN38 10 mg/kg, Erbitux 10 mg/kg, free SN38 3 mg/kg; 18 days; N = 4
Method: as §2, §3
(§6) The resected tumors are shown in (C). N = 4 in each group. * p < 0.05, ** p < 0.005, *** p < 0.001, **** p < 0.0001.

EGFR− HEK293 cells = test: XTT cell viability / cytotoxicity, HEK293 cells; assay type: cell-based; conditions: 6 h pre-incubation, wash; for effect on EGFR− HEK-293 cells: further incubation, in words; for IC50: HEK293, XTT
Method: as §4, §5

H1299 (EGFR+) tumor = test: In vivo tumor growth inhibition, H1299 (EGFR+) xenograft; design: species or system NOD/SCID (nude) mice; conditions: 3 times, N = 4
Method: as §1, §2, §3, §6

H1299 cells [3] = test: Cell cycle analysis, PI flow cytometry; assay type: cell-based; conditions: 2.5 µM, 6 h pre-treatment, in words
Method: Cell cycle analysis was conducted using a cell cycle detection kit (Biotopped, Huangshan, China). H1299 cells were seeded in 5 × 10^4 cells/mL concentration in the complete growth medium. (RPMI 1640) Incubation was performed in 6-well plates at 37 °C under 5% CO2. The next day, the medium was removed, and the fresh medium containing P6-SN38 or free SN38 (2.5 µM) was added and incubated for 6 h. Then, the medium was removed by washing, a fresh medium was added, and the cells were incubated for an additional 24 and 48 h. Then, the cells were trypsinized and washed with PBS twice at 1500 rpm for 5 min. Cells were fixed in 66% ethanol for 2 h. Then, cells were incubated with 0.2 mL buffer solution containing PI (25 μL) and RNase A (10 μL) after being rinsed with cold PBS (according to the manufacturer’s protocol). Finally, the cell cycle was analyzed by Beckman CytoFLEX FCM (Bio-Rad Laboratories, Inc., Rishon Le Zion, Israel).
To investigate whether the observed growth inhibition and apoptosis were mediated by cell cycle arrest, we examined the effects of P6-SN38 and free SN38 on cell cycle progression in NSCLC H1299 cells. The cells were pre-treated with the compounds for 6 h, followed by an additional 24 or 48 h incubation period (Figure 4A,B).
Figure 4 Cell cycle arrest analysis of treatment with SN38 and P6-SN38. Cell cycle distribution of H1299 cells detected by flow cytometry after 24 h (A) and 48 h (B) treatment with SN38 and P6-SN38 at 2.5 µM. A total of 1 × 10^6 cells were pre-incubated with P6-SN38 or SN38 for 6 h, followed by additional incubation for 24 h and 48 h. The cells were then stained with propidium iodide (PI) and analyzed by flow cytometry (C). The data in A and B are presented as the mean ± SD (n = 3). “ns” means non-significant. * p < 0.05, *** p < 0.001, **** p < 0.0005. “ns” means non-significant. TEXT PRINTED IN THE PICTURE: (C) 01-H1299_P6_24h-B9.fcs: %G1 : 6.76; %S : 52.1; %G2 : 40.6 | (C) 01-H1299_P6_48h-D8.fcs: %G1 : 9.76; %S : 47.2; %G2 : 40.6 | (C) 01-H1299_SN_24h-A9.fcs: %G1 : 0; %S : 39.4; %G2 : 54.0 | (C) 01-H1299_SN_48h-C8.fcs: %G1 : 9.66; %S : 61.4; %G2 : 27.8 DOUBTS OF THE COPYIST ABOUT THIS PICTURE: 01-H1299_P6_24h-B9.fcs, %G1: small print, 6.76 could be 8.76 or 6.78 / 01-H1299_P6_24h-B9.fcs, %G2: small print, 40.6 could be 40.8 / 01-H1299_P6_48h-D8.fcs, %G1: small print, 9.76 could be 9.78 / 01-H1299_P6_48h-D8.fcs, %G2: small print, 40.6 could be 40.8 / 01-H1299_SN_24h-A9.fcs, %S: small print, 39.4 could be 38.4 / 01-H1299_SN_48h-C8.fcs, %G1: small print, 9.66 could be 9.68 or 9.86 / 01-H1299_SN_48h-C8.fcs, %G2: small print, 27.8 could be 27.6 / The untreated samples (01-H1299_24h_UT-A6.fcs, 01-H1299_UT_48h-C6.fcs) were left out because they stand for no substance. The RMSD values were left out as fit statistics.

What does the source list for `CCc1c2c(nc3ccc(O)cc13)-c1cc3c(c(=O)n1C2)COC(=O)[C@@]3(CC)OC(=O)CCC(=O)NCCCC(=O)N[C@H]1CSSC[C@@H](C(N)=O)NC(=O)[C@H]([C@@H](C)CC)NC(=O)[C@H](Cc2ccc(O)cc2)NC(=O)[C@H](CO)NC(=O)CNC(=O)[C@@H]2CCCN2C(=O)[C@H](C(C)C)NC(=O)[C@H](Cc2c[nH]cn2)NC1=O` [P6-SN38] ({X1-GABA}-CHVPGSYIC-NH2; disulfide 1-9)?
effect on growth of K562 (EGFR−) tumors, in words (K562 (EGFR−) tumor; 18 days): did not affect the growth; K562 tumor volume (K562 (EGFR−) tumor; day 18, initial ~50 mm^3, control 1772 ± 265, N = 4): 1522 ± 561 mm^3; IC50 (EGFR+ H1299 cells; 48 h incubation): 2500 nM; IC50 (EGFR+ H1299 cells; 72 h incubation): 900 nM; apoptotic rate (H1299 cells [1]): 12.9 ± 4.2%; late-stage apoptosis rate (H1299 cells [1]): 14.1 ± 7.3%; apoptosis (H1299 cells [1]): 21.48 ± 9.90%; late apoptosis rate (H1299 cells [1]): 25.32 ± 10.00%; mice weight loss, in words [2]: minimal weight loss; effect on EGFR− HEK-293 cells (EGFR− HEK293 cells): nearly no effect; IC50 (EGFR− HEK293 cells; 48 h incubation): > 50000 nM; IC50 (EGFR− HEK293 cells; 72 h incubation): > 50000 nM; H1299 tumor eradication (H1299 (EGFR+) tumor; 10 mg/kg i.v. once a week, day 18): eradicated completely in 3 out of 4 mice; cell cycle phase of arrest (H1299 cells [3]; 24 h): both the S and G2/M phases; cell cycle phase of arrest (H1299 cells [3]; 48 h): S/G2 phase arrest

What does the source list for `CCc1c2c(nc3ccc(O)cc13)-c1cc3c(c(=O)n1C2)COC(=O)[C@]3(O)CC` [SN38]?
IC50 (EGFR+ H1299 cells; 48 h incubation): 800 nM; IC50 (EGFR+ H1299 cells; 72 h incubation): 500 nM; apoptotic rate (H1299 cells [1]): 16.3 ± 6.4%; late-stage apoptosis rate (H1299 cells [1]): 15.2 ± 6.8%; apoptosis (H1299 cells [1]): 19.27 ± 5.11%; late apoptosis rate (H1299 cells [1]): 26.80 ± 14.90%; mice weight loss, in words [2]: significant weight loss; effect on EGFR− HEK-293 cells (EGFR− HEK293 cells): active in both cell lines; IC50 (EGFR− HEK293 cells; 48 h incubation): 4400 nM; IC50 (EGFR− HEK293 cells; 72 h incubation): 2700 nM; effect on tumor growth, in words (H1299 (EGFR+) tumor; i.v. once a week, Erbitux 10 mg/kg, free SN38 3 mg/kg, 18 days): non-specific tumor reduction; cell cycle phase of arrest (H1299 cells [3]; 24 h): G2/M phase arrest; cell cycle phase of arrest (H1299 cells [3]; 48 h): S/G2 phase arrest
